One series deals with NCI-H23. Briefly: Antiproliferative activity against human NCI-H23 cells assessed as reduction in cell viability after 4 days by CellTiter-Glo assay. To be noted: Homo sapiens, NCI-H23, 96 h. In general terms: ATP-based viability assays read luminescence as a measure of living cells.
Series [1] can be described thus: Octanol/buffer distribution coefficient, logD of the compound at pH 7.4. It counts as physicochemical.
Series [2] in a line: Plasma protein binding in human. It counts as ADME, cell-free. To be noted: read-out: PPB (converted).
A short description of series [3]: Intrinsic clearance in human microsomes. It counts as ADME, Microsome.
A short description of series [4]: Intrinsic clearance in mouse microsomes. It counts as ADME, Microsome.
A short description of series [5]: AUC(0 to 24 hrs) in mouse at 60 mg/kg, po. The following applies: in vivo. It counts as ADME, organism-based. On the set-up: time < 24 hr, route oral, dose 60 mg/kg.
Series [6] can be described thus: AUC(0 to 24 hrs) in rat at 60 mg/kg, po. To be noted: in vivo. It counts as ADME, organism-based. Further details: time < 24 hr, route oral, dose 60 mg/kg.
Series [7] can be described thus: Plasma protein binding in mouse. The class given is ADME, cell-free. To be noted: read-out: PPB (converted).
In series [8] the target is Serine/threonine-protein kinase PLK2 (Homo sapiens, UniProt Q9NYY3). The experiment in a line: Inhibition of PLK2 (unknown origin) at 1 uM relative to control.
The target in series [9] is T1, Mitogen-activated protein kinase kinase kinase 19 (Homo sapiens) (UniProt Q56UN5).
T1 sequence (whole entry): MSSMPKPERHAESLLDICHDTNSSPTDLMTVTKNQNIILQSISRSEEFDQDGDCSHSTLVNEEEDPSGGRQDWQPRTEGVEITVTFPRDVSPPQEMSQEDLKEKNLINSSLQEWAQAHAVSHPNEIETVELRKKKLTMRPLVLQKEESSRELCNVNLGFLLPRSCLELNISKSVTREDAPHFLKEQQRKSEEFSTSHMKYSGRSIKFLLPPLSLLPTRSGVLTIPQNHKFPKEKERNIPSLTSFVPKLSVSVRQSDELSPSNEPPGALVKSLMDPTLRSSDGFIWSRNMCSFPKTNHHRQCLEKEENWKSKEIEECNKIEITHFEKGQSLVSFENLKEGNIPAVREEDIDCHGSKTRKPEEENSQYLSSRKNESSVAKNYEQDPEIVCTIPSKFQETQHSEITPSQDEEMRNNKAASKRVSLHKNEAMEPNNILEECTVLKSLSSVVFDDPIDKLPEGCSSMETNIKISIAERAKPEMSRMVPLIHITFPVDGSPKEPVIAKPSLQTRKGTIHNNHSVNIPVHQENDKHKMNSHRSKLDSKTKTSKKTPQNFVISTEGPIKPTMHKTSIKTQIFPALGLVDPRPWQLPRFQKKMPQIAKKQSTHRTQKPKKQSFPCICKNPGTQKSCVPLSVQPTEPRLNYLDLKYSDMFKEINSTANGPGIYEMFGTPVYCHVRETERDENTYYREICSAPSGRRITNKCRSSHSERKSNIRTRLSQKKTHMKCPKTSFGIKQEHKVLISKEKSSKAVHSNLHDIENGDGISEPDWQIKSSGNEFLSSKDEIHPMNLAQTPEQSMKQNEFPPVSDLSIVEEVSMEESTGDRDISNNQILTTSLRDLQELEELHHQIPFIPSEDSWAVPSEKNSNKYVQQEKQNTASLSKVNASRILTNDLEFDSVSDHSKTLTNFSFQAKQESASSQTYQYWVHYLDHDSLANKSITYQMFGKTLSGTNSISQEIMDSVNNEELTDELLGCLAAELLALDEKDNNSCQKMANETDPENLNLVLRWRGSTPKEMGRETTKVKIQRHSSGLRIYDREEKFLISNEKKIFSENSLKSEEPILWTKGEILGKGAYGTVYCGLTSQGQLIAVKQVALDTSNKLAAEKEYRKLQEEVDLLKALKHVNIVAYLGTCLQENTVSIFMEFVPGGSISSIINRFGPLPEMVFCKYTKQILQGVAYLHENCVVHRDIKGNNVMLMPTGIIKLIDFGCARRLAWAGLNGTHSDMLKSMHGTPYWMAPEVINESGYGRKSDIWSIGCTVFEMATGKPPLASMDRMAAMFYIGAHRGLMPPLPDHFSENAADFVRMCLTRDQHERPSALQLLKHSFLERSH
The experiment in a line: Inhibition of YSK4 (unknown origin) at 1 uM relative to control.

The target of series [10] is Epidermal growth factor receptor (Homo sapiens) (UniProt P00533). Briefly: Inhibition of EGFR (unknown origin) at 1 uM relative to control.
For series [11], the target named is Serine/threonine-protein kinase PLK3 (Homo sapiens, UniProt Q9H4B4). The experiment in a line: Inhibition of PLK3 (unknown origin) at 1 uM relative to control.
For series [12], the target named is T2, Cyclin-G-associated kinase (Homo sapiens) (UniProt O14976).
T2 sequence (whole entry): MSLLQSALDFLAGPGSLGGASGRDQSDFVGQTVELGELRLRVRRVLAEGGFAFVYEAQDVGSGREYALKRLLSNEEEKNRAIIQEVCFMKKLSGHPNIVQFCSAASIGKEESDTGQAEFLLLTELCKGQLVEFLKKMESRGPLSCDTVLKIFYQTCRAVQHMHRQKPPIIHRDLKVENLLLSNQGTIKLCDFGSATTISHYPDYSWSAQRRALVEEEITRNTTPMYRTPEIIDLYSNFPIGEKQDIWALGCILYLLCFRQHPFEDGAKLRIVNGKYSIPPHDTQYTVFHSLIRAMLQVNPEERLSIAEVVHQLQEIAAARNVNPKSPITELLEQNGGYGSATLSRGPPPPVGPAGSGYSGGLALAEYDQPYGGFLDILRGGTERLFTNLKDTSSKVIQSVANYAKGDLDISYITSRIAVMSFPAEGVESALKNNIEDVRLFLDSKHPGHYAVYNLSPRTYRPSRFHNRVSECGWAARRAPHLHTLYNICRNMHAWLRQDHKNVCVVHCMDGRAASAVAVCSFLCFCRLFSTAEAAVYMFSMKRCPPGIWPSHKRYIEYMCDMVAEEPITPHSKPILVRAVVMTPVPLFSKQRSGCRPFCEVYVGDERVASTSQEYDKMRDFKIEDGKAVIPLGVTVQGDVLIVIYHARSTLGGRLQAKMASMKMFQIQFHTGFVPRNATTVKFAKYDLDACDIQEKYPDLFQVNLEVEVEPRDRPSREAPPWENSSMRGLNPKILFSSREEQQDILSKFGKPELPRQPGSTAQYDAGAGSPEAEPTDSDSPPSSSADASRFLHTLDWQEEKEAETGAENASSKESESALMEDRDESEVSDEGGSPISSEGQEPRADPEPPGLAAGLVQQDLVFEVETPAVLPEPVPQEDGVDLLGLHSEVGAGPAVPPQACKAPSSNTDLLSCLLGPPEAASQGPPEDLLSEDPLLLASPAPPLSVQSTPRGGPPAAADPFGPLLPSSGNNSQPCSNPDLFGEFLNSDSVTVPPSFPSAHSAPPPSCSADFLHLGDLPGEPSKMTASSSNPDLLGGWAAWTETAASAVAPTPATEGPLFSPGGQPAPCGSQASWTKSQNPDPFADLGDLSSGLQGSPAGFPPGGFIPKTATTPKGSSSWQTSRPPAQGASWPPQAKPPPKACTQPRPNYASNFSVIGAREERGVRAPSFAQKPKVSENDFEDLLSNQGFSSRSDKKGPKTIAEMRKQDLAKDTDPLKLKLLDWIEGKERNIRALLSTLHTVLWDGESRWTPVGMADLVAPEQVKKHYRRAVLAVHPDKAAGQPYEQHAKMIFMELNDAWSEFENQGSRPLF
The experiment in a line: Inhibition of GAK (unknown origin) at 1 uM relative to control.

A further series deals with Wee1-like protein kinase (Homo sapiens, UniProt P30291).
The target of the next series is Cytochrome P450 3A4 (Homo sapiens, UniProt P08684). Briefly: Inhibition of CYP3A4 (unknown origin). It counts as ADME.
The nature of series [13]: Permeability of the compound across apical to basolateral side in human Caco-2 cells. It counts as ADME, cell-based. To be noted: read-out: permeability.
Series [14] in a line: Permeability of the compound across basolateral to apical side in human Caco-2 cells. It counts as ADME, cell-based. To be noted: read-out: permeability. For orientation: Caco-2 cells form a polarised layer with tight junctions and transporters.
Series [15] is described as follows: Efflux ratio of permeability from basolateral to apical side over apical to basolateral side in human Caco-2 cells. The class given is ADME, cell-based.
A short description of series [16]: AUC(0 to 24 hrs) in mouse at 10 mg/kg, po. The class given is ADME, organism-based. Further details: time < 24 hr, route oral, dose 10 mg/kg. The following applies: in vivo, 24 h.
Series [17] has as its system A-427. Briefly: Antitumor activity against human A-427 cells xenografted in SCID mouse assessed as reduction in tumor growth at 80 mg/kg, po administered once daily for 28 days and measured twice per weeks. To be noted: time 28.0 day. The class given is functional, organism-based. (In general: A xenograft is tissue or cells of one species grown in another, often human tumour cells in immunodeficient mice.)

Series [18] is described as follows: AUC in mouse plasma at 80 mg/kg, po administered once daily for 28 days. The class given is ADME, organism-based. On the set-up: time 28 day, dose 80 mg/kg.
Series [19] concerns A-427. Briefly: Antiproliferative activity against human A-427 cells assessed as reduction in cell viability after 3 days by CellTiter-Glo assay. To be noted: A-427, 72 h. The class given is functional, cell-based.

The source made the active and inactive calls. The calls are words filed in the database; no cut-off is given here.

Chain of Wee1-like protein kinase (P30291 whole entry): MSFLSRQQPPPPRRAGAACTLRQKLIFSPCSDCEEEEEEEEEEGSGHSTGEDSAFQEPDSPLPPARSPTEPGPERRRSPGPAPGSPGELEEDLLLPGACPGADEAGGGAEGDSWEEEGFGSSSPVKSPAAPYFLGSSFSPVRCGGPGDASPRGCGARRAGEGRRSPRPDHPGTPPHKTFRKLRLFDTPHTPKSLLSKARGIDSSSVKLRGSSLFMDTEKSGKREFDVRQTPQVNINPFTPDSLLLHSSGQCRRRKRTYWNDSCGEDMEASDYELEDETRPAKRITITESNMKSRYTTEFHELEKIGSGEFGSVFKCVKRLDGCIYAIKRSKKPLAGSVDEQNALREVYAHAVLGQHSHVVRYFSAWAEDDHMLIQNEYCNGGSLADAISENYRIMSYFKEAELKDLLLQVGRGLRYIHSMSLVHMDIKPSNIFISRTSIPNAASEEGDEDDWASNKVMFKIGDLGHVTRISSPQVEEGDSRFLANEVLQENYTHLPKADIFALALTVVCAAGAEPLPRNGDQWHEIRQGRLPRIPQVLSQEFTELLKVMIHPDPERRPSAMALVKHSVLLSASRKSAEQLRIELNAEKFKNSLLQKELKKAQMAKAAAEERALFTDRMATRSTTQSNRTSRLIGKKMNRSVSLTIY
Chain of Cytochrome P450 3A4 (P08684 whole entry): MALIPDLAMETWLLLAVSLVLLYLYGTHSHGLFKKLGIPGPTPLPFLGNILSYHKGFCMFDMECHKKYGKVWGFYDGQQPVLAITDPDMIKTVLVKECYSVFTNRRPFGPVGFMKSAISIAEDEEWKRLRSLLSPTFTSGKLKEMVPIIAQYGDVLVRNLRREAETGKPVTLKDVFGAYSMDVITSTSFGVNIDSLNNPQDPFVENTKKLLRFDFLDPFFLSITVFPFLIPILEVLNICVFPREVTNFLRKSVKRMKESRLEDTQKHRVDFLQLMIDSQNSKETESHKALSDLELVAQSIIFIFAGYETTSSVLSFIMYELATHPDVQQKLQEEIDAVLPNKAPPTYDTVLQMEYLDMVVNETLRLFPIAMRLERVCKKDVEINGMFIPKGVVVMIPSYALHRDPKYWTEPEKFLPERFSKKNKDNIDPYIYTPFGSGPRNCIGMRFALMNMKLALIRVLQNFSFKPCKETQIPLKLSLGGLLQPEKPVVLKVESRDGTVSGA
Chain of Epidermal growth factor receptor (Homo sapiens) (P00533 whole entry): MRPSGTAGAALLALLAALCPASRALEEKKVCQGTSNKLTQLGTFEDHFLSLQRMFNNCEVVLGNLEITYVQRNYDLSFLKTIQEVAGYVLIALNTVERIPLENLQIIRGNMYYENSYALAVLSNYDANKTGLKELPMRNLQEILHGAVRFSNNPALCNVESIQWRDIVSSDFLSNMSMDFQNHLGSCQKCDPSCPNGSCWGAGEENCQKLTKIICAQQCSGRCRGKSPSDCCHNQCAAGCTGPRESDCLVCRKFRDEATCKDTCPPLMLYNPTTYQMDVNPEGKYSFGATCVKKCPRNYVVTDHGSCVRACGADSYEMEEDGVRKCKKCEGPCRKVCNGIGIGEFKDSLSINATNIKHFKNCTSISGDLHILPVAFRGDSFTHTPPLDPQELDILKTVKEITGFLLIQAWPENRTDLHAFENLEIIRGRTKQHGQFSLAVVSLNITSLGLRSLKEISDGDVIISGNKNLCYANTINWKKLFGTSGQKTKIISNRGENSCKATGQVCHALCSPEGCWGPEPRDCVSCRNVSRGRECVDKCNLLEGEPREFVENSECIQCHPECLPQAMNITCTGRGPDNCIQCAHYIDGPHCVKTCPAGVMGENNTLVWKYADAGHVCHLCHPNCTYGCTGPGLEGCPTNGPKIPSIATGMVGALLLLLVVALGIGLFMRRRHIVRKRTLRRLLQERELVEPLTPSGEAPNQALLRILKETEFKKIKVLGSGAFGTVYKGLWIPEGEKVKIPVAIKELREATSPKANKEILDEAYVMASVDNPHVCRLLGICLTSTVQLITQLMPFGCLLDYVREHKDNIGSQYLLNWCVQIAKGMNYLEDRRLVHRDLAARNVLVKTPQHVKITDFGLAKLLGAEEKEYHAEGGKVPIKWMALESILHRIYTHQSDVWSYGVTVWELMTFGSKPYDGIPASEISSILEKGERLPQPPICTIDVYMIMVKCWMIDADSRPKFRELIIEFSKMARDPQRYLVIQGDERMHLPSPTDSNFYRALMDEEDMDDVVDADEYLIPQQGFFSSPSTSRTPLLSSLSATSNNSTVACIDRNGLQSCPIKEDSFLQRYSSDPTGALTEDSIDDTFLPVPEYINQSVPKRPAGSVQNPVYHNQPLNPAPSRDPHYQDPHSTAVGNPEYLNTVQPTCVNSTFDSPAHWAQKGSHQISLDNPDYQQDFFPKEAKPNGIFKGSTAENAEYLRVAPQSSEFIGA
Chain of Serine/threonine-protein kinase PLK3 (Q9H4B4 whole entry, looked up): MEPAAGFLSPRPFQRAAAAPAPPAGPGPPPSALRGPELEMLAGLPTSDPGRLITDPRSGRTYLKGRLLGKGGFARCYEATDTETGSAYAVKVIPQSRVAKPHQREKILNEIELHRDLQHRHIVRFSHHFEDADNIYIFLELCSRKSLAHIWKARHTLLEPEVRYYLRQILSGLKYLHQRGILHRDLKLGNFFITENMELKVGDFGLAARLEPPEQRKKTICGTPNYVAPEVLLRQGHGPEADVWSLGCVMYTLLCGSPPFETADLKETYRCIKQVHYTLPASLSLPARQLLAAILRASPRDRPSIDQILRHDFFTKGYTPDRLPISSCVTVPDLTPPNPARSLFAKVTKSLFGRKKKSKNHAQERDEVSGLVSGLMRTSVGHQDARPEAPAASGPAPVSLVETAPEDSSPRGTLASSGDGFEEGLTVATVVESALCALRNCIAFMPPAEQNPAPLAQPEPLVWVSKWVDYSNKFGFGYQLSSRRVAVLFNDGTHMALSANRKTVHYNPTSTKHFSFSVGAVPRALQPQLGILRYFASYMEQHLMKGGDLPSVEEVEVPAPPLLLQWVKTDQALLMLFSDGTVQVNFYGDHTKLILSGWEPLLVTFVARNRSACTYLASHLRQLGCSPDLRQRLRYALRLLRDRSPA
Chain of Serine/threonine-protein kinase PLK2 (Q9NYY3 whole entry, looked up): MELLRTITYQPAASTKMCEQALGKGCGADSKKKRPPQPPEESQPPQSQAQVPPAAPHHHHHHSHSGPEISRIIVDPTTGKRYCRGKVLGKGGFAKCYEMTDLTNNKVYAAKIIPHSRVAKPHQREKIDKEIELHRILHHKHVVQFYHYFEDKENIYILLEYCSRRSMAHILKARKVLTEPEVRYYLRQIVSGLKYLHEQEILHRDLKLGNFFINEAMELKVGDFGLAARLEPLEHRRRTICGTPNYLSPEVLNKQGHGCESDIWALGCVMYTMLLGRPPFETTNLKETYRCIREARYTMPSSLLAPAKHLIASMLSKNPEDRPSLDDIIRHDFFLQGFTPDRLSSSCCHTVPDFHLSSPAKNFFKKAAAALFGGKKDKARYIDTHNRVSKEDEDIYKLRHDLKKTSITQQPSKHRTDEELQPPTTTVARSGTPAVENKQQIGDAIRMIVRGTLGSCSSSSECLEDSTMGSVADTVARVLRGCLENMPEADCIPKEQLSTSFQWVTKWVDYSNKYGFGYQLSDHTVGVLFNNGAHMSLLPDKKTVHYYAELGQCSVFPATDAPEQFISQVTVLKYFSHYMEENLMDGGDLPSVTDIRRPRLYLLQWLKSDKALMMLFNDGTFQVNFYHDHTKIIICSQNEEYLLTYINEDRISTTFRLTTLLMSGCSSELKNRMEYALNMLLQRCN
Description for Wee1-like protein kinase: Displacement of Alexa Fluor labelled kinase tracer178 from WEE1 (unknown origin) incubated for 60 mins by FRET assay

A word on the IC50: it is the midpoint of a concentration-inhibition curve. A word on the logD: it is lipophilicity at a set pH, counting ionised and neutral species. Broadly, the CLint scaled is a measure of how fast metabolising enzymes remove a compound, apart from limits set by blood flow. Lower therefore signals slow turnover. By AUC(0-t) is commonly meant the area under the concentration-time curve up to a stated or last time point. A word on the inhibition: it is the relative decrease from the control value, in per cent. Higher therefore signals a response far below the control. With `C=CCn1c(=O)c2cnc(Nc3ccc(N4CCN(C)CC4)cc3)nc2n1-c1ccc2c(n1)[C@](C)(O)CC2`, the values for the IC50 with NCI-H23 and at Wee1-like protein kinase were 317 nM and 4.8 nM, respectively. In addition, the pH-dependent lipophilicity (logD) in [1] came out at 2. In addition, the fraction unbound is 0.47 in [2] and 0.27 in series [7]. In addition, the CLint scaled was 20 mL/min/kg in series [3] and < 38 mL/min/kg in [4]. Besides, the results for the AUC(0-t) at 24 h in series [5] and in [6] were 27 µM·h and 35 µM·h, respectively. Further, the inhibition was > 90% in [8]; > 90% in [9]; > 90% in [10]; 75% in series [11]; 75% in [12].

For orientation: efflux ratio means the permeability from basolateral to apical divided by that in the opposite direction, in the common usage. For `Cc1cn(-c2c(Cl)cccc2Cl)c(=O)c2cnc(Nc3ccc(N4CCN(C)CC4)cc3)nc12`, the IC50 in the series with NCI-H23 was found to be 226 nM; against Cytochrome P450 3A4 it was 4500 nM; against Wee1-like protein kinase, 2 nM. The logD in [1] was determined as 3.4. Also, the fraction unbound in series [2] is 0.027. The CLint scaled in [3] stood at 39 mL/min/kg. Moreover, the Papp A→B in series [13] was 1.5 ×10⁻⁶ cm/s. Further, the Papp B→A in series [14] stood at 1.8 ×10⁻⁶ cm/s. Further, the efflux ratio in series [15] was 1.1.

As a reminder, the AUC is concentration integrated over time. The low end stands for less exposure, the high end for more exposure. For `C=CCn1c(=O)c2cnc(Nc3ccc(N4CCN(C)CC4)cc3)nc2n1-c1cccc(C(C)(C)O)n1` [ADAVOSERTIB], the IC50 was 122 nM in the series on NCI-H23 and 78 nM with A-427 [19]. The logD in [1] is 2.2. In [2], the fraction unbound was 0.361. The intrinsic clearance (CLint scaled) in series [3] worked out at 34 mL/min/kg. The Papp A→B in series [13] was determined as 3.4 ×10⁻⁶ cm/s. Also, the Papp B→A in [14] turned out to be 42 ×10⁻⁶ cm/s. In series [16], this molecule displayed an area under the curve (AUC) of 0.8 µM·h. This molecule had an area under the curve AUC(0-t) at 24 h in series [5] of 22 µM·h. In the series on A-427 [17], the result was Active. Further, the area under the curve (AUC) at 672 h in series [18] was found to be 44 µM·h.
